Values quoted from earlier work, collected in patent US20230071557A1, “STABLE PHARMACEUTICAL COMPOSITIONS OF ROPINIROLE” (ORION CORPORATION, priority 2020, published 2023).
Where a name gives a salt, the structure may show the parent alone.

Test system: dogs
Settings: aqueous eye drop solution comprising 10 or 40 mg/ml of ropinirole hydrochloride

## CCCN(CCC)CCc1cccc2c1CC(=O)N2 [ropinirole hydrochloride]
  Vomiting (emesis) in dogs: produced vomiting rapidly and consistently
